Source: article PMC2893567 (Macromolecular bioscience, 2010)

Target: cholera toxin B5 subunit (CT B5) (Vibrio cholerae serotype O1, UniProt P01556)
Assay: biochemical
Assay type: binding

Sequence of cholera toxin B5 subunit (CT B5) (P01556 22-124 limits assumed): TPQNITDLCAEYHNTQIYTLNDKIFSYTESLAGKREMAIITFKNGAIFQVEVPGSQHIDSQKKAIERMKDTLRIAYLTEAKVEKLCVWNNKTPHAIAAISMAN

Work on `O=C[C@H](O)[C@@H](O)[C@@H](O)[C@H](O)CO` [Galactose] yielded an Improvement over galactose of 1 and an IC50 (IC50 (saccharide concentration)) of 30 to 45 mM.
“XGAGAGPSGAGAGPSGAGAGPSGAGAGPSGAGAGPXGGGG [35-RCG-2]” was tested, and the “Non-specific binding of unmodified peptide” value was “less than 20%”.
For “XGAKAKPKGAKAKPKGAKAKPKGAKAKPKGAKAKPXGGGG [35-RCK-2]”, the “Non-specific binding of unmodified peptide” value was “less than 20%”.
